Read-outs that look alike come from different tables or passages of the source. Numbered stars: 1 amine (or outer) side, 2 acyl side, 3 side chain; on linkers, the order of the positions; unused ones are H or OH. Bridge positions count the residues as written; N and C are the ends. Square brackets hold non-standard residues; d marks the D form. * marks the point of attachment. PEG24 = NCCOCCOCCOCCOCCOCCOCCOCCOCCOCCOCCOCCOCCOCCOCCOCCOCCOCCOCCOCCOCCOCCOCCOCCOCCC(=O)O; C20 diacid = O=C(O)CCCCCCCCCCCCCCCCCCC(=O)*; γGlu = O=C(O)[C@H](CCC(=O)[*:2])N[*:1]; 4Pal = N[C@@H](Cc1ccncc1)C(=O)O; AEEA = NCCOCCOCC(=O)O; CH2 = C([*:1])[*:2]
Molecular target: T1, rat NPRA (Rattus norvegicus, UniProt P18910)
T1 construct: Full-Length cDNA Cloning and Generation of Cell Lines Overexpressing Natriuretic Peptide Receptors (NPRs); expressed in transfected cells; host or cells: Jump-in T-Rex HEK293 cells, pJTI R4 CMV-TO MCS pA vector, tetracycline induction
T1 sequence (P18910 29-1057): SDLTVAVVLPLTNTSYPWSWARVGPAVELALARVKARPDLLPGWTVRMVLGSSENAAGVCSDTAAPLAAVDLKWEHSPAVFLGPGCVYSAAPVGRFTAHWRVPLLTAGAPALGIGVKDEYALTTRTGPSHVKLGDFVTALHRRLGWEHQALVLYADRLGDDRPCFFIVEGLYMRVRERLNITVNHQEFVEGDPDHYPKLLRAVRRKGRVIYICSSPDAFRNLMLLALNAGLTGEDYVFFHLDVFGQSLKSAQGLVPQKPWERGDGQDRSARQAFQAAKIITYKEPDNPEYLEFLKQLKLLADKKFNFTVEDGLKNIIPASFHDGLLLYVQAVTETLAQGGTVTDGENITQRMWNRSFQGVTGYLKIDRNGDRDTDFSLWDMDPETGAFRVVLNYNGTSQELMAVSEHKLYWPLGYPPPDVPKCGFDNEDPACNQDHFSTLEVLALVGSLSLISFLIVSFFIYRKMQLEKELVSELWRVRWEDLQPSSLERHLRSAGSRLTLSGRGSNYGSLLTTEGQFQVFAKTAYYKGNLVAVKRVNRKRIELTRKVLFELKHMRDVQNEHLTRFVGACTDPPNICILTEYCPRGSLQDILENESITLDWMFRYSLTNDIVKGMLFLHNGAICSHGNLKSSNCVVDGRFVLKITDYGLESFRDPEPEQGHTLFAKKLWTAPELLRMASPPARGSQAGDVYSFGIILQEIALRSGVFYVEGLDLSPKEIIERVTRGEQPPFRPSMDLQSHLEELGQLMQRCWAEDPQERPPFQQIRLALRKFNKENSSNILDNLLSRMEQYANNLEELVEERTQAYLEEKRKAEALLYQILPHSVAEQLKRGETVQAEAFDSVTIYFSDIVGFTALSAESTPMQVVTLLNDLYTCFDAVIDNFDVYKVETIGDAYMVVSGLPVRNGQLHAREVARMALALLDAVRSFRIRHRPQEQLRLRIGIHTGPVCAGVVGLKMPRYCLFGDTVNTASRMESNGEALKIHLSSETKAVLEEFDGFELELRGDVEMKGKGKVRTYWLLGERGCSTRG
Experiment: Rat NPRA cGMP activity assay (HTRF) in HEK293 cells overexpressing NPRA
Assay type: cell-based
Protocol: All sequences were verified by full-length sequencing performed by ACGT DNA Sequencing Services (Wheeling, IL). The target cDNA was cloned into pJTI R4 CMV-TO MCS pA vector and then co-transfected with pJT1R4 Int vector into Jump-in™ T-Rex™ HEK293 cells for mammalian inducible expression using Jump-in™ T-Rex™ HEK293 kit and Lipofectamine LTX and Plus Reagent following manufacturer's protocols, as briefly described below.
Jump-in™ T-Rex™ HEK293 cells were plated in a BioCOAT® poly-D-lysine coated 6-well plate (Becton Dickinson, cat no. 354413) at 1 million cells/well in 2 mL culture medium and incubated for 18 h at 37° C. and 5% CO2 to 50-70% confluence. A cDNA mix was made in a 50 mL tube by adding 1.5 μg target cDNA, 1.5 μg pJT1R4 Int vector, 3 μL Plus Reagent, and 300 μL Opti-MEM I sequentially into the tube. A reagent mix was made in a separate 50 mL tube by adding 7.5 μL Lipofectamine LTX into 300 μL Opti-MEM I. The mixtures were incubated for 5 min at room temperature. The cDNA mix was then transferred into the reagent mix, mixed well, and incubated for additional 30 min at room temperature. A 500 μL of cDNA/Lipofectamine complex was then transferred to the wells of the cell plate in which the culture medium was changed to 2 mL of transfection medium containing DMEM with 4.5 g/L D-glucose supplemented with 10% FBS-HI and 20 mM HEPES. Transfected cells were cultured for 48 h in an incubator at 37° C. and 5% CO2. A subclone or pool from each overexpressing cell line was maintained in culture medium with the addition of 2 mg/mL G418 sulfate for the clone selection based on its built-in resistance to G418 sulfate for at least 3 weeks with medium changed every 2-3 days.
NPRs were overexpressed in T-Rex™ HEK293 cells following the induction with 300 ng/mL tetracycline in culture medium for 48 h. Induced cell lines in an exponential growth phase were treated with 0.05% trypsin-EDTA for a few seconds at room temperature, harvested in cell medium containing FBS to neutralize the trypsin, counted, and cryopreserved at the density of 2 million cells/mL in cell preservation solution containing FBS-HI with 5% DMSO. Cryopreserved cells were stored at −80° C. for a few days prior to transferring to a liquid nitrogen tank. Induced cell lines were then used for suspension assays to measure the activity of polypeptides to stimulate cGMP production in cGMP assays or for the preparation of cell membranes to measure the binding activity of polypeptides in competitive radioligand binding assays, as described below.
Test polypeptides were added starting at 10 μM concentration and at 10-fold decreasing concentrations to obtain 8-point concentration-response curves (i.e., 10 μM to 1 pM). The quantity of cGMP generated was detected using HTRF® technology and normalized to maximum amount produced by 100 nM amidated rat ANP and the minimum amount produced by assay buffer. Detailed steps are outlined below.
Stock solutions of test polypeptides (2 mM) dissolved in DMSO were first diluted 100-fold in assay buffer containing HBSS with Ca^2+ and Mg^2+, 5 mM HEPES, 0.5 mM IBMX, and 0.1% BSA or 0.1% casein (pH 7.4). The polypeptides were further serially diluted in 1:10 dilution steps in assay buffer containing 0.1% BSA or 0.1% casein to generate 8-point 2× working stock solutions ranging from 20 μM to […].
A 10 μL cell suspension containing 4000 cells was plated in Costar® half-area white opaque 96-well plates (Corning, cat no. 3693). Then 10 μL of assay buffer (basal activity), 200 nM of amidated rat ANP (maximum activity) or 2× working stock solutions of test polypeptides were transferred into the plate. Final concentration of DMSO in each well was 0.5%. The plate was shaken for 15 sec and then incubated for 40 min at room temperature.
The cGMP generated was measured using cGMP kit following the manufacturer's directions, as described below.

[1] = assay buffer with 0.1% casein, read-out: cGMP Assay (EC50, pM) w/Casein rNPRA
[2] = cGMP Assay (EC50, pM) w/Casein rNPRA, assay buffer with 0.1% casein

| Molecule | EC50 [1] | EC50 (assay buffer with 0.1% BSA, read-out: cGMP Assay (EC50, pM) w/BSA rNPRA) | EC50 [2] |
| --- | --- | --- | --- |
| CC[C@H](C)[C@@H]1NC(=O)[C@H](CCCNC(=N)N)NC(=O)[C@H](CC(=O)O)NC(=O)[C@H]([C@@H](C)CC)NC(=O)[C@H](CCCNC(=N)N)NC(=O)[C@H](CCCCN)NC(=O)CNC(=O)[C@H](Cc2ccccc2)NC(=O)[C@@H](NC(=O)[C@H](CO)NC(=O)[C@H](CO)NC(=O)[C@H](CCCNC(=N)N)NC(=O)CCNC(=O)[C@H](CCCCN)NC(=O)[C@H](CCC(=O)O)NC(=O)COCCOCCNC(=O)COCCOCCNC(=O)COCCOCCNC(=O)COCCOCCNC(=O)COCCOCCNC(=O)COCCOCCNC(=O)COCCOCCNC(=O)COCCOCCNC(=O)CNC(=O)[C@H](CCCCN)NC(=O)[C@H](CCC(=O)O)NC(=O)[C@H](CCCCN)NC(=O)[C@H](CCC(=O)O)NC(=O)[C@H](CCCCN)NC(=O)[C@H](CCC(=O)O)NC(=O)CC[C@H](NC(=O)CCCCCCCCCCCCCCCCCCC(=O)O)C(=O)O)CSCSC[C@@H](C(=O)N2CCC[C@H]2C(=O)N[C@@H](CO)C(=O)N[C@@H](Cc2ccccc2)C(=O)N[C@@H](CCCNC(=N)N)C(=O)N[C@@H](Cc2c[nH]cn2)C(=O)NCC(=O)N[C@@H](CO)C(=O)N2CCC[C@H]2C(=O)N[C@@H](CO)C(=O)N[C@@H](CO)C(=O)NCC(=O)N[C@@H](C)C(=O)N2CCC[C@H]2C(=O)N2CCC[C@H]2C(=O)N2CCC[C@H]2C(=O)N[C@@H](CO)C(N)=O)NC(=O)CNC(=O)[C@H](CC(C)C)NC(=O)CNC(=O)[C@H](CO)NC(=O)[C@H](CCC(N)=O)NC(=O)[C@H](Cc2c[nH]cn2)NC(=O)CNC1=O [Example 120] | 25400 pM |  |  |
| {C20 diacid-γGlu}-EKEKEKG[AEEA][AEEA][AEEA][AEEA]S[4Pal]RRSSCFGGRIDRIGHQSGLGCPSFRHGGKSSGAPPPS-NH2 (linker 18-34 via CH2) [Example 83] | 16700 pM |  |  |
| CC[C@H](C)[C@@H]1NC(=O)[C@H](CCCNC(=N)N)NC(=O)[C@H](CC(=O)O)NC(=O)[C@H]([C@@H](C)CC)NC(=O)[C@H](CCCNC(=N)N)NC(=O)[C@H](CCCCN)NC(=O)CNC(=O)[C@H](Cc2ccccc2)NC(=O)[C@@H](NC(=O)[C@H](CO)NC(=O)[C@H](CO)NC(=O)[C@H](CCCNC(=N)N)NC(=O)[C@H](CCCNC(=N)N)NC(=O)[C@H](Cc2ccncc2)NC(=O)[C@H](CO)NC(=O)CCOCCOCCOCCOCCOCCOCCOCCOCCOCCOCCOCCOCCOCCOCCOCCOCCOCCOCCOCCOCCOCCOCCOCCOCCNC(=O)CNC(=O)[C@H](CCCCN)NC(=O)[C@H](CCC(=O)O)NC(=O)[C@H](CCCCN)NC(=O)[C@H](CCC(=O)O)NC(=O)[C@H](CCCCN)NC(=O)[C@H](CCC(=O)O)NC(=O)CC[C@H](NC(=O)CCCCCCCCCCCCCCCCCCC(=O)O)C(=O)O)CSCSC[C@@H](C(=O)N2CCC[C@H]2C(=O)N[C@@H](CO)C(=O)N[C@@H](Cc2ccccc2)C(=O)N[C@@H](CCCNC(=N)N)C(=O)N[C@@H](Cc2c[nH]cn2)C(=O)NCC(=O)NCC(=O)N[C@@H](CCCCN)C(=O)N[C@@H](CO)C(=O)N[C@@H](CO)C(=O)NCC(=O)N[C@@H](C)C(=O)N2CCC[C@H]2C(=O)N2CCC[C@H]2C(=O)N2CCC[C@H]2C(=O)N[C@@H](CO)C(N)=O)NC(=O)CNC(=O)[C@H](CC(C)C)NC(=O)CNC(=O)[C@H](CO)NC(=O)[C@H](CCC(N)=O)NC(=O)[C@H](Cc2c[nH]cn2)NC(=O)CNC1=O [Example 109] | 16800 pM | 276000 pM |  |
| CC[C@H](C)[C@@H]1NC(=O)[C@H](CCCNC(=N)N)NC(=O)[C@H](CC(=O)O)NC(=O)[C@H]([C@@H](C)CC)NC(=O)[C@H](CCCNC(=N)N)NC(=O)[C@H](CCCCN)NC(=O)CNC(=O)[C@H](Cc2ccccc2)NC(=O)[C@@H](NC(=O)[C@H](CO)NC(=O)[C@H](CO)NC(=O)[C@H](CCCNC(=N)N)NC(=O)[C@@H]2CCCN2C(=O)[C@H](CCCCN)NC(=O)[C@H](CCC(=O)O)NC(=O)COCCOCCNC(=O)COCCOCCNC(=O)COCCOCCNC(=O)COCCOCCNC(=O)COCCOCCNC(=O)COCCOCCNC(=O)CNC(=O)[C@H](CCCCN)NC(=O)[C@H](CCC(=O)O)NC(=O)[C@H](CCCCN)NC(=O)[C@H](CCC(=O)O)NC(=O)[C@H](CCCCN)NC(=O)[C@H](CCC(=O)O)NC(=O)CC[C@H](NC(=O)CCCCCCCCCCCCCCCCCCC(=O)O)C(=O)O)CSCSC[C@@H](C(=O)N2CCC[C@H]2C(=O)N[C@@H](CO)C(=O)N[C@@H](Cc2ccccc2)C(=O)N[C@@H](CCCNC(=N)N)C(=O)N[C@@H](Cc2c[nH]cn2)C(=O)NCC(=O)N[C@@H](CO)C(=O)N2CCC[C@H]2C(=O)N[C@@H](CO)C(=O)N[C@@H](CO)C(=O)NCC(=O)N[C@@H](C)C(=O)N2CCC[C@H]2C(=O)N2CCC[C@H]2C(=O)N2CCC[C@H]2C(=O)N[C@@H](CO)C(N)=O)NC(=O)CNC(=O)[C@H](CC(C)C)NC(=O)CNC(=O)[C@H](CO)NC(=O)[C@H](Cc2ccc(O)cc2)NC(=O)[C@H](Cc2c[nH]cn2)NC(=O)CNC1=O [Example 122, HOOC-(CH2)18-CO-(γGlu)-EKEKEKG-(AEEA)6-EKPRSS[CFGKRIDRIGHYSGLGCJPSFRHGSPSSGAPPPS-NH2] |  |  | 3770 pM |
| {C20 diacid-γGlu}-EKEKEKGEKPRSSCFGKRIDRIGHQSGLGCPSFRHGSGSPSSGAPPPSG-NH2 (linker 14-30 via CH2) [Example 131] |  |  | 2160 pM |
| {C20 diacid-γGlu}-EKEKEKG[PEG24]EKPRSSCFGKGIDRIGHQSGLGCPSFRHSGSPSSGAPPPSG-NH2 (linker 15-31 via CH2) [Example 133, HOOC-(CH2)18-CO-(γGlu)-EKEKEKG-PEG24-EKPRSS[CFGKGIDRIGHQSGLGCJPSFRHSGSPSSGAPPPSG-NH2] | 581000 pM |  |  |

From US20240174727A1, “LONG-ACTING NATRIURETIC PEPTIDES AND USES THEREOF” (Eli Lilly and Company, priority 2022, published 2024)
